Source: ChEMBL document CHEMBL1201862, “PubChem BioAssay data set” (2004)
Active and inactive are the calls of the source.

Key:
[1] = biological target: Voltage-dependent T-type calcium channel subunit alpha-1H (Homo sapiens, UniProt O95180); assay: human CACNA1H calcium influx blockade – cell-based, synthetic library set 2, HEK293 HH8, Fluo-4, SAR follow-up (AID 493023); type: functional
[2] = biological target: T1, Tyrosine-protein phosphatase non-receptor type 22 (Homo sapiens, UniProt Q9Y2R2); assay: inhibition of lymphoid tyrosine phosphatase LYP – biochemical, pCAP fluorogenic substrate, fluorescence, set 3, SAR follow-up (AID 449727); type: functional
T1 sequence (Q9Y2R2 whole entry): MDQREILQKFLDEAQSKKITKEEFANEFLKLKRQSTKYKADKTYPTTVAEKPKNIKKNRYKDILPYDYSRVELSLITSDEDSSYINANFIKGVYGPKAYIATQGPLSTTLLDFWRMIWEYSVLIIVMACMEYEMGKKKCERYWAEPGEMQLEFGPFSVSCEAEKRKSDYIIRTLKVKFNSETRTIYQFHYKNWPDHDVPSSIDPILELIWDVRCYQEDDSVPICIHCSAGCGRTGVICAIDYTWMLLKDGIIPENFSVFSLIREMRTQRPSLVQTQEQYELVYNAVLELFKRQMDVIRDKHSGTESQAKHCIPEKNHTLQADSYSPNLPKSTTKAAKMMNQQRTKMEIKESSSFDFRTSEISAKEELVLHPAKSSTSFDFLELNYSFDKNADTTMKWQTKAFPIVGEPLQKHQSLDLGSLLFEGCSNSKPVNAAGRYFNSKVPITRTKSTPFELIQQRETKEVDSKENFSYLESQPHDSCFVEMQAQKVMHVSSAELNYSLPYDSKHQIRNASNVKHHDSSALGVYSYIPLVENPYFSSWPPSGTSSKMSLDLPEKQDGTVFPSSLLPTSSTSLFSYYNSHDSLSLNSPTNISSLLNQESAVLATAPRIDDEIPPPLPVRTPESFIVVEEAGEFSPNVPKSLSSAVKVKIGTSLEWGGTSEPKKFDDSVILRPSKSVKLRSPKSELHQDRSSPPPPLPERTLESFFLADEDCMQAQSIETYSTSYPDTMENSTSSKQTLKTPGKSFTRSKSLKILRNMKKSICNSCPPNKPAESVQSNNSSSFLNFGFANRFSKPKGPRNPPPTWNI

[3] = biological target: T2, G-protein coupled receptor 35 (Homo sapiens, UniProt Q9HC97); assay: inhibition of zaprinast-stimulated GPR35 beta-arrestin translocation – imaging, U2OS, beta-arrestin-GFP, zaprinast agonist, primary screen (AID 2058); type: functional;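 further: antagonist potency meaning inhibition of agonist-induced arrestin redistribution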
[4] = biological target: T3, Tyrosine-protein phosphatase non-receptor type 7 (Homo sapiens, UniProt P35236); assay: inhibition of hematopoietic tyrosine phosphatase HePTP – biochemical, set 2, SAR follow-up (AID 449736); type: functional
T3 sequence (P35236 whole entry): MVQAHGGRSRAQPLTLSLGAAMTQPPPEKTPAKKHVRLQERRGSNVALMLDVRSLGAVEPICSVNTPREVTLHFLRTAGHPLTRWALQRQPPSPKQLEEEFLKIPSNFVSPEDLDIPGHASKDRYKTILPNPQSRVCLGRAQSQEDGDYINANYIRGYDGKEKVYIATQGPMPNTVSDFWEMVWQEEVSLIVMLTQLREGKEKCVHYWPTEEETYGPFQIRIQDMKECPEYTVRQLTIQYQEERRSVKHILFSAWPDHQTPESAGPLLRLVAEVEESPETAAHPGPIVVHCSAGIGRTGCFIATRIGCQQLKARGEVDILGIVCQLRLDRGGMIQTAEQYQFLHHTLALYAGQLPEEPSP

[5] = biological target: G-protein coupled receptor 55 (Homo sapiens, UniProt Q9Y2T6); assay: blockers of GPR55 signalling, imaged – imaging, image-based, counter-screen for GPR35 antagonist project, SAR follow-up (AID 2397); type: functional
[6] = biological target: Tyrosine-protein phosphatase non-receptor type 12 (Homo sapiens, UniProt Q05209); assay: SAR Selectivity Analysis of small molecule inhibitors of PEST using pCAP in a fluorescence assay. [Related pubchem assays (depositor defined):AID1779, AID1784, AID2135]; type: functional
[7] = biological target: T2, G-protein coupled receptor 35; assay: SAR Analysis for the identification of Selective Antagonists of ERK1/2 Activity in GPR35-Overexpressing U2OS Cells. [Related pubchem assays: 2079, 2058 ]; type: functional, cell-based
[8] = biological target: T1, Tyrosine-protein phosphatase non-receptor type 22; assay: SAR LYP1 Fluorescent Assay using OMFP substrate for In Vitro dose response studies - Set 3. [Related pubchem assays (depositor defined):AID1779, AID1784, AID2140, AID2686]; type: functional
[9] = THP-1 cell cytotoxicity, dose response, cytotoxicity control for non-replicating M. tuberculosis project (AID 489025); type: functional
cells = type: functional
[10] = biological target: T4, High affinity choline transporter 1 (Homo sapiens, UniProt Q9GZV3); assay: human choline transporter blockers, potency – cell-based, 5-point CRC, membrane potential dye, dose response (AID 504840); type: functional
T4 sequence (Q9GZV3 whole entry): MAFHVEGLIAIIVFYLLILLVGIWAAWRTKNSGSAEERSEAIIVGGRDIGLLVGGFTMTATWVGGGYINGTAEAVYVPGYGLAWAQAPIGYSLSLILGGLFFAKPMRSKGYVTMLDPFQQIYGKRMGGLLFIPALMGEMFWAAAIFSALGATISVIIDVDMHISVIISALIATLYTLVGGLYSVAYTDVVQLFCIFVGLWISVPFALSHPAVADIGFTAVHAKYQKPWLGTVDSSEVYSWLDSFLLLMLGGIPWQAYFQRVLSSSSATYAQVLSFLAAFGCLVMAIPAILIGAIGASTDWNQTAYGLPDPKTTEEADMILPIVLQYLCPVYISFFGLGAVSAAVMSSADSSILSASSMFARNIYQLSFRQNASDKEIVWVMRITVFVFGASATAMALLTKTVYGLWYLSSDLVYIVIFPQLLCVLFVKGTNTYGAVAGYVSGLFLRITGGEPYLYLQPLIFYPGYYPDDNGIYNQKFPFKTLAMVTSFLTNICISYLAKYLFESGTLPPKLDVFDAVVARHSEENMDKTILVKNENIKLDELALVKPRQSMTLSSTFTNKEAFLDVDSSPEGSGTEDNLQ

[11] = biological target: T5, Ubiquitin-conjugating enzyme E2 N (Homo sapiens, UniProt P61088); type: functional
T5 sequence (P61088 whole entry): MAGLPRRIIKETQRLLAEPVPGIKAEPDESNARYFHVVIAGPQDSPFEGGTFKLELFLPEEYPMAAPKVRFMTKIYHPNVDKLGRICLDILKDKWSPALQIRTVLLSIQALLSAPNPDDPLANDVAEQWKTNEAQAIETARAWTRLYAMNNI

Bcl-2-related protein A1 = Bcl-2-related protein A1 (Mus musculus, UniProt Q07440); type: functional;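 further: confirmatory dose–response counterscreen on Bfl-1, used to check hits from a UBC13 polyubiquitin inhibitor campaign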
[12] = biological target: T5, Ubiquitin-conjugating enzyme E2 N; type: functional; remark: listed apart in the source

T2 sequence (Q9HC97 whole entry): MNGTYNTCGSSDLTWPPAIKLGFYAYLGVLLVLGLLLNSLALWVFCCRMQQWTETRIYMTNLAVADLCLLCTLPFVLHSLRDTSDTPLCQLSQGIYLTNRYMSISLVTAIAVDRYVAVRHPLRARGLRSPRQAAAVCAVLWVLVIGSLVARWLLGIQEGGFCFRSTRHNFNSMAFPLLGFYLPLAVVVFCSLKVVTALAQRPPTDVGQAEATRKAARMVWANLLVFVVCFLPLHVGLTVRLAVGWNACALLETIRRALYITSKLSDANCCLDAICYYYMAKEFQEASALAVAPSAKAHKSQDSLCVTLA
Chain of G-protein coupled receptor 55 (Q9Y2T6 whole entry): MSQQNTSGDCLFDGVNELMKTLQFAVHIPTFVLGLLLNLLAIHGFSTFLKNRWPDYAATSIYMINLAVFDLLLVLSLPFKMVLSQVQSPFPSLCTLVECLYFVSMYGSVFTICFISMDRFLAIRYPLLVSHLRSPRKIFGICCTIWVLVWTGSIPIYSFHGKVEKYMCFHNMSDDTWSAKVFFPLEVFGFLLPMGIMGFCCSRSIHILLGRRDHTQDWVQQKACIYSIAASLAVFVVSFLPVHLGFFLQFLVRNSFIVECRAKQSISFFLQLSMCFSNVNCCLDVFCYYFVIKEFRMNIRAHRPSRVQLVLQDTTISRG
Chain of Voltage-dependent T-type calcium channel subunit alpha-1H (O95180 whole entry): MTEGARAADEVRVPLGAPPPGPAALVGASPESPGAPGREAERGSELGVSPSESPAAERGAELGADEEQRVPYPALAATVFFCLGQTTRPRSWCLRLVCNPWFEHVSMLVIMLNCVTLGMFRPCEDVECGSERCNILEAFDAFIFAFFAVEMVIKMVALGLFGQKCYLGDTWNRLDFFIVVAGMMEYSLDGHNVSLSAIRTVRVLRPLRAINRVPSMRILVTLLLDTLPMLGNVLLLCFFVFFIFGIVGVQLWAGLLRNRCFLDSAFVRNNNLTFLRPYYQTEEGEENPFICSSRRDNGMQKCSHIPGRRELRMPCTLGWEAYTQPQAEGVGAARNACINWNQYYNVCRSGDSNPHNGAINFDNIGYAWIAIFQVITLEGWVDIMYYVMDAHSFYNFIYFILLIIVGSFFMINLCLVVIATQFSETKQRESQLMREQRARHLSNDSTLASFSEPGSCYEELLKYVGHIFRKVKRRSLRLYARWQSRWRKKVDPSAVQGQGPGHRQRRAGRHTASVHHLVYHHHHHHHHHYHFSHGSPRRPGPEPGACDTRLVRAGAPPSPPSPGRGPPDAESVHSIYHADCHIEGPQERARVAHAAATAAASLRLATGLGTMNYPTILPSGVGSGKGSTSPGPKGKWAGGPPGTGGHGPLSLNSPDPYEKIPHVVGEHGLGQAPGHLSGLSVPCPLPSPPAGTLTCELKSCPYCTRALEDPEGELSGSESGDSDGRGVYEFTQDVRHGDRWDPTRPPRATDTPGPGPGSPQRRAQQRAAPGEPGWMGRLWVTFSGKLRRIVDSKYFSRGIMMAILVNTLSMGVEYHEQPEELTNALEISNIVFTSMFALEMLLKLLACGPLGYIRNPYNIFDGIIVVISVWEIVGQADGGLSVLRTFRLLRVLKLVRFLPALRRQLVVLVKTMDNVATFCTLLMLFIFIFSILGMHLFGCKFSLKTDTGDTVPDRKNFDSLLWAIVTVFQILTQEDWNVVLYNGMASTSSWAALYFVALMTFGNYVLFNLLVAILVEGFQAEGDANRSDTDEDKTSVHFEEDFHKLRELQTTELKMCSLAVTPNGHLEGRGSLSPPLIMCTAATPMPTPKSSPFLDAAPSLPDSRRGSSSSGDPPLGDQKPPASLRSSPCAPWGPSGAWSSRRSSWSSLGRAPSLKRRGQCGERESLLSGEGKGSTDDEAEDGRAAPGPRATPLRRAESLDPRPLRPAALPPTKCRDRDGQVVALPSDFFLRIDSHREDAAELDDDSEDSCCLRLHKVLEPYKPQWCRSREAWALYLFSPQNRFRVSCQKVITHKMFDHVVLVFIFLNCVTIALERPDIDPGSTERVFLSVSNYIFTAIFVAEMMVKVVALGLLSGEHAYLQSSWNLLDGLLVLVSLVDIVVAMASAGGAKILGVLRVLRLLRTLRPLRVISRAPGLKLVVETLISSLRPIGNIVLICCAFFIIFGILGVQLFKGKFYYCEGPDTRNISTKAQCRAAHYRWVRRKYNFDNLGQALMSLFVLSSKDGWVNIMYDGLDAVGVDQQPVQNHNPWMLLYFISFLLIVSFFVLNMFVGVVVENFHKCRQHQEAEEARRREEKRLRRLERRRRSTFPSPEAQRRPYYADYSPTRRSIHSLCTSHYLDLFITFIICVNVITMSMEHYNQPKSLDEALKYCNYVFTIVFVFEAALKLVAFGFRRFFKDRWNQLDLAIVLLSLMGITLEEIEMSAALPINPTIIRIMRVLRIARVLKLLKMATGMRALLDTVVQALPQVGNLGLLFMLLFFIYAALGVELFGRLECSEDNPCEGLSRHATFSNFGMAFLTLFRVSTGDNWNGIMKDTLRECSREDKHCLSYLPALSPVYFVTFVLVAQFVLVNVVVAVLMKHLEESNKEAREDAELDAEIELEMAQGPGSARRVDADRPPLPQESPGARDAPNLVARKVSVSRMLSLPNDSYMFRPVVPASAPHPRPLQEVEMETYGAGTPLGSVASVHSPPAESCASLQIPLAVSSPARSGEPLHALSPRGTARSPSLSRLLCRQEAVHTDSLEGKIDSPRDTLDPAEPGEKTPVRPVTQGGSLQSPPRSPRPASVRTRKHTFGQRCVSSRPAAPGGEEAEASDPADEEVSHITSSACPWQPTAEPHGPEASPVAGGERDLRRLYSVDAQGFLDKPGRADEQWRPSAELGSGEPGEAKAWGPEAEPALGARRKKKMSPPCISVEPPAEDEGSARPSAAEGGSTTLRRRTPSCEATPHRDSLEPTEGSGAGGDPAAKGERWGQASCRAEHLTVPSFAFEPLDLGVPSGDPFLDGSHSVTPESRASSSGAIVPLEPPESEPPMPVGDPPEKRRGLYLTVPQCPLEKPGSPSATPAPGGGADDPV
Chain of Bcl-2-related protein A1 (Q07440 whole entry): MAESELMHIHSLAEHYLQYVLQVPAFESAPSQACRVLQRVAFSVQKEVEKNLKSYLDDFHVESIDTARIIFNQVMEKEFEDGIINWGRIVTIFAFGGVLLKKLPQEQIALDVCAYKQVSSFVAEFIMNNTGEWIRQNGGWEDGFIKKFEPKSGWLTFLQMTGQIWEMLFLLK
Chain of Tyrosine-protein phosphatase non-receptor type 12 (Q05209 whole entry): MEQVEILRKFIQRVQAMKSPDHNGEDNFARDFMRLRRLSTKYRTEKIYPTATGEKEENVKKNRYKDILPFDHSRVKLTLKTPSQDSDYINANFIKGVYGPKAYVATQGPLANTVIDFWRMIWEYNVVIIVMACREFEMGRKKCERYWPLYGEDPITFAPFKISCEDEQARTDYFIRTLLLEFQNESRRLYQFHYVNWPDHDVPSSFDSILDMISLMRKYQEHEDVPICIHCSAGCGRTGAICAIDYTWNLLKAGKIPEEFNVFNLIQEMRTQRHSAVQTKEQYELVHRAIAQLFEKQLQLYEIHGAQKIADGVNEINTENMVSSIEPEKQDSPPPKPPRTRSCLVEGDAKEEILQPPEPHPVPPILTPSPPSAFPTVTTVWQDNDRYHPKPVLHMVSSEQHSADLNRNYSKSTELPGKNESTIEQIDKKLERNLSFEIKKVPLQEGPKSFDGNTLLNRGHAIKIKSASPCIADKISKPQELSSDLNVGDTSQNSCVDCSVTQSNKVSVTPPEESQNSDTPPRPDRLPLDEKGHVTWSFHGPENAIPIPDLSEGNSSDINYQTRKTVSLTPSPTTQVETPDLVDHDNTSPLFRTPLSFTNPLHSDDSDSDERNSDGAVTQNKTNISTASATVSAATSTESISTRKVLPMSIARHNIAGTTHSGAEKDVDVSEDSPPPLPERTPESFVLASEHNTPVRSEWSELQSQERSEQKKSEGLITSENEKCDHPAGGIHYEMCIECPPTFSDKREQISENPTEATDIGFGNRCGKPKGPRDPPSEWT

With `CC(C)(C)CCN1CC2CCC(NC(=O)c3ccc(Cl)cc3Cl)C2C1` (centres undefined) the EC50 [1] was 0.36 µM (active).
With `COc1cccc(/C=C2\SC(=S)N(CCCC(=O)Nc3ccc(C(=O)O)cc3)C2=O)c1` the IC50 [2] was > 100 µM (inactive), the IC50 [3] was < 0.5 µM (active) and the IC50 [4] was 8.56 µM (active). The IC50 [5] was > 32 µM (inactive), the IC50 [6] was 32.3 µM (active) and the IC50 [7] was 0.691 µM (active). The IC50 [8] was > 100 µM (inactive).
For `COc1ccc(C(CNC(=O)c2cccc(NS(=O)(=O)c3ccc(C)c(F)c3)c2)N2CCCC2)cc1` (centres undefined), the CC50 [9] was > 40 µM (active), the IC50 (cells) was 38 µM (active) and the IC50 [10] was 15.8 µM (active). The IC50 [11] was 15.3 µM (active), the IC50 (Bcl-2-related protein A1) was > 20 µM (inactive) and the IC50 [12] was 11.7 µM (active).
